Test results taken from patent US20240130944A1, “LRAT INHIBITORS FOR TREATING SKIN AGEING” (DSM IP Assets B.V., priority 2021, published 2024).

Experiments:
[1] = biological target: T1, recombinant LRAT enzyme (Homo sapiens, UniProt O95237); assay: LRAT inhibition assay; assay type: biochemical; settings: inhibitor concentration 100 [μm]; relative to non-inhibited control reaction
T1 construct: purchased Abnova H00009227-PO1
T1 sequence (O95237 1-230): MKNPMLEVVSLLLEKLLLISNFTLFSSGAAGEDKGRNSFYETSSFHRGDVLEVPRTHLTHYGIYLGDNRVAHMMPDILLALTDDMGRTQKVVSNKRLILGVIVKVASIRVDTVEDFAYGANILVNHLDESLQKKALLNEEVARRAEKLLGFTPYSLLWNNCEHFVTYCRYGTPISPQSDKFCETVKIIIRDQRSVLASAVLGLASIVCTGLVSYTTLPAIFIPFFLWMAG
Method: The following buffer was prepared and stored at 4° C.: 0.05 M potassium phosphate, 2.5 mM dithioerythritol, pH 7.0(PO4/DTE). On the day of the assay, 1 mg BSA per mL of buffer was added to give a P04/DTE/BSA working buffer. Retinol substrate (Fluke, 1 mM) was prepared in acetonitrile (Riedel-de-Haen, Chromasolv) and stored in amber bottles under nitrogen gas at −20° C. Solutions of 4 mM dilauroyl phosphatidyl choline in ethanol were prepared and stored at −20° C. Inhibitors were prepared as 10 mM stock solutions according their solubilities in H2O, ethanol, acetonitrile, DMSO or acetic acid. The quenching solution was prepared using pure ethanol containing 50 μg/mL butylhydroxytoluene (Aldrich, BHT) A pentane solution containing 50 μg/mL BHT was used for the extractions.
To a 2 dram glass vial, the following were added in order: […] buffer to give a total volume of 500 μL, 5 μL acyl donor (dilauroyl phosphatidyl choline), 5 μL inhibitor or solvent blank (10 mM stock or further dilutions) followed by 2 μg recombinant LRAT enzyme (Abnova, H00009227-PO1). The mixture was incubated for 5 min. at 37° C. to equilibrate the reaction temperature and then 5 μL of a 1 mM retinol solution was added. The vials were capped, vortexed for 5 seconds and incubated for 60 minutes at 37° C. The reaction was quenched by adding 0.5 mL of a ethanol/BHT quenching solution. The retinoids were extracted by adding 1 mL pentane/BHT, vortexing the tubes for several seconds and centrifuging the tubes at 4000 rpm in a bench-top centrifuge for 5 min. to quickly separate the layers. The upper pentane layer was removed into a clean vial, and the aqueous layer re-extracted twice with another 1 mL pentane/BHT, as described above. […] The dried residue was stored at −20° C. and directly analyzed by HPLC. The amount of retinyl laurate was quantified for LRAT activity by integration of the HPLC or UPLC signal as described below. […]
Two HPLC protocols were used for retinoid analysis. The separation of retinol and retinol esters was performed with a reverse-phase analytical column (Waters Symmetry (R), 75×4.6 mm, 3.5 μm; Eluent A: 0.07% trifluoroacetic acid TFA in water, B: 0.07% TFA in acetonitrile (AcN), linear gradient from 1% B to 99% B in 6 min, 24 min on 99% B) or ACQUITY UPLC BEH Phenyl 1.7 μm 2.1×50 mm (0.02% TFA in water and eluent B, 0.02% TFA in AcN with a gradient of 2% to 99% B in 0.9 min, 99% B for 1 min, from 99% to 2% B in 0.1 min and flow rate 0.5 ml/min at 40° C. The eluate was monitored with a PDA detector for absorbance at 325 nm. Quantification of the retinol and retinylester peak was based on references retinoic acid and retinyl acetate (Fluke). The inhibition [%] was calculated relative to the product yield from the non-inhibited control reaction.

[2] = system: Collagen III; assay: Collagen III immunostaining on living human skin explants; assay type: cell-based; design: key: 0 = unchanged; (+) = very slight increased; + = slight increased; ++ = moderate increased; +++ = fairly clear increased; ++++ = clear increased; settings: topical
Method: (§1) On an abdoplasty coming from a person with a type II phototype, 51 circular skin explants of 11±1 mm in diameter were prepared. The explants were kept for survival in BEM culture medium (BIO-EC's Explants Medium, Longjumeau, France) at 37° C. in a humid, 5% CO2 atmosphere
(§2) Each morning on day 0, 1, 4 and 6 the test products (except retinol) were applied topically on the basis of […] (2 mg/cm2) of the concerned skin explants and spread using a small spatula. Each evening on day 0, 1, 4, 6 the retinol was applied topically on the basis of 2 μl/ explants (2 mg/cm2) of the concerned skin explants and spread using a small spatula. The vehicle V (DMSO 100%) was applied topically (same protocol as for products) in the morning and in the evening on day0, 1, 4, 6. The culture medium was refreshed on dayl, 4 and 6.
(§3) On day 0, 3 explants from the batch at day 0 were collected and cut in two parts. Half was fixed in buffered formalin solution and half was frozen at −80° C. On day 8, 3 explants from each experimental condition were collected and processed in the same way as on day 0.
(§4) After fixation for 24 hours in buffered formalin, the samples were dehydrated and impregnated in paraffin using a Leica PEARL dehydration automat. The samples were embedded using a Leica EG 1160 embedding station. 5-μm-thick sections were made using a Leica RM 2125 Minot-type microtome, and the sections were mounted on Superfrost® histological glass slides. The frozen samples were cut at 7-μm thickness with a Leica CM 3050 cryostat. The sections were then mounted on silanized glass slides Superfrost® Plus. The microscopical observations were realized using a Leica DMLB or Olympus BX43 microscope. Pictures were digitized with a numeric DP72 Olympus camera with cellSens storing software.
The staining was assessed by microscopical observation

[3] = system: living human skin explants; assay: Epidermal thickness on living human skin explants; assay type: cell-based; design: key: 0 = unchanged; (+) = very slight increased; + = slight increased; ++ = moderate increased; +++ = fairly clear increased; ++++ = clear increased; settings: topical
Method: as §1, §2, §3, §4
The cell viability of the epidermal and dermal structures was controlled on formalin-fixed paraffin-embedded (FFPE) skin sections after to Masson's trichrome staining, Goldner variant. The cell viability was assessed by microscopical observation.

[4] = LRAT inhibitor 0.005% with Retinol 0.05%
[5] = LRAT inhibitor 0.005%, no retinol
[6] = LRAT inhibitor 0.01% with Retinol 0.05%
[7] = LRAT inhibitor 0.01%, no retinol
[8] = LRAT inhibitor 0.1% with Retinol 0.05%

`CCCCCCCCS(=O)(=O)NC(Cc1cccc(C(=N)N)c1)C(=O)N1CCN(S(=O)(=O)CCCCCCCC)CC1` (centres unmarked) [OCTS-(D,L)-F(3AMD)-Pzd(N—SO2Oct)] was tested. Which “LRAT inhibition, Inhibition [%]” value [1] did it give?
The value was 89.9%.

Which results are given for `CC1=C(/C=C/C(C)=C/C=C/C(C)=C/CO)C(C)(C)CCC1` [Retinol, reference compound]?
change of Collagen III level (staining) compared to control (vehicle only) on day 8 ([2]; Retinol 0.05% alone): +; change of Epidermis thickness compared to control (vehicle only) on day 8 ([3]; Retinol 0.05% alone): +

`CC(=O)N1CCN(C(=O)[C@H](Cc2cccc(C(=N)N)c2)NS(=O)(=O)c2ccc3ccccc3c2)CC1` [2NAPS-(L)-F(3AMD)-Pzd(N—Ac)] was tested. Which “LRAT inhibition, Inhibition [%]” value [1] did it give?
Its value is 38.7%.

Which “change of Collagen III level (staining) compared to control (vehicle only) on day 8” value (from here on “change of Collagen III level (staining)”) [2, 4] does the source give for `CCCCCCCCCCS(=O)(=O)NC(Cc1cccc(C(=N)N)c1)C(=O)N1CCN(S(C)(=O)=O)CC1` (centres unmarked) [LRAT-IA, DECS-(L)-F(3AMD)-Pzd(N-SO2Me)] here?
The value was “+”.

What about the “change of Collagen III level (staining)” value [2, 5] of the same compound?
The value was 0.

What about the “change of Collagen III level (staining)” value [2, 6] of the same compound?
The value was “++”.

What about the “change of Collagen III level (staining)” value [2, 7] of the same compound?
The value was 0.

And the “change of Collagen III level (staining)” value [2, 8]?
Its value is “+++”.

What about the “change of Collagen III level (staining)” value ([2]; LRAT inhibitor 0.1%, no retinol) of the same compound?
The value was “++”.

What about the “change of Epidermis thickness compared to control (vehicle only) on day 8” value (“change of Epidermis thickness” for short) [3, 4] of the same compound?
Its value is “+”.

And the “change of Epidermis thickness” value [3, 5]?
Its value is “(+)”.

And the “change of Epidermis thickness” value [3, 6]?
The value was “+”.

And the “change of Epidermis thickness” value [3, 7]?
Its value is “+”.

What about the “change of Epidermis thickness” value [3, 8] of the same compound?
The value was “+”.

With “DODS-(L)-F(4NH2)-Pzd(N—SO2Me) [reference compound]” as the compound, how does the “LRAT inhibition, Inhibition [%]” value [1] read?
Its value is 0%.

How did the “LRAT inhibition, Inhibition [%]” value [1] turn out when `CS(=O)(=O)N1CCN(C(=O)C(N)Cc2cccc(C(=N)N)c2)CC1.Cl.Cl` (centres unmarked) [H-(D,L)-F(3AMD)-Pzd(N—SO2Me) × 2 HCl, H-(D,L)-F(3AMD)-Pzd(N—SO2Me), reference compound] was run?
Its value is 6.8%.
